# From PubChem BioAssay (NCI)
#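 Assay format: 96-well plates, 48-hour exposure. Here, GI50 denotes the concentration required for 50% inhibition of growth. TGI denotes the concentration required for complete inhibition of growth.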
# Key:
# Assay in all cases: inhibition of tumour cell growth, NCI panel, 48 h
# [1] = system: 786-0 renal
# [2] = system: A498 renal
# [3] = system: A549 NSCLC
# [4] = system: ACHN renal
# [5] = system: BT-549 breast
# [6] = system: CAKI-1 renal
# [7] = system: CCRF-CEM leukemia
# [8] = system: COLO 205 colon
# [9] = system: DU-145 prostate
# [10] = system: EKVX NSCLC
# [11] = system: HCC-2998 colon
# [12] = system: HCT-116 colon
# [13] = system: HCT-15 colon
# [14] = system: HOP-62 NSCLC
# [15] = system: HOP-92 NSCLC
# [16] = system: HS 578T breast
# [17] = system: HT29 colon
# [18] = system: IGROV1 ovarian
# [19] = system: K-562 leukemia
# [20] = system: KM12 colon
# [21] = system: LOX IMVI melanoma
# [22] = system: M14 melanoma
# [23] = system: MALME-3M melanoma
# [24] = system: MCF7 breast
# [25] = system: MDA-MB-231 breast
# [26] = system: MDA-MB-435
# [27] = system: MDA-N
# [28] = system: MOLT-4 leukemia
# [29] = system: NCI-H226 lung
# [30] = system: NCI-H23 lung
# [31] = system: NCI-H460 lung
# [32] = system: NCI-H522 lung
# [33] = system: NCI/ADR-RES ovarian
# [34] = system: OVCAR-3 ovarian
# [35] = system: OVCAR-4 ovarian
# [36] = system: OVCAR-5 ovarian
# [37] = system: OVCAR-8 ovarian
# [38] = system: PC-3 prostate
# [39] = system: RPMI-8226 leukemia
# [40] = system: RXF 393 renal
# [41] = system: SF-268 CNS
# [42] = system: SF-295 CNS
# [43] = system: SF-539 CNS
# [44] = system: SK-MEL-28 melanoma
# [45] = system: SK-MEL-5 melanoma
# [46] = system: SK-OV-3 ovarian
# [47] = system: SN12C renal
# [48] = system: SNB-19 CNS
# [49] = system: SNB-75 CNS
# [50] = system: SR leukemia
# [51] = system: SW-620 colon
# [52] = system: TK-10 renal
# [53] = system: U251 CNS
# [54] = system: UACC-257 melanoma
# [55] = system: UACC-62 melanoma
# [56] = system: UO-31 renal
# [57] = system: HL-60(TB) leukemia
# [58] = system: SK-MEL-2 melanoma
structure (smiles),measurement,setting,value
O=C1C(=C2SC(c3ccccc3)(c3ccccc3)c3ccccc32)C(=O)c2ccccc21,TGI,[1],> 100 µM
same,TGI,[2],> 100 µM
same,TGI,[3],> 100 µM
same,TGI,[4],> 100 µM
same,TGI,[5],> 100 µM
same,TGI,[6],> 100 µM
same,TGI,[7],> 100 µM
same,TGI,[8],> 100 µM
same,TGI,[9],> 100 µM
same,TGI,[10],> 100 µM
same,TGI,[11],> 100 µM
same,TGI,[12],> 100 µM
same,TGI,[13],> 100 µM
same,TGI,[14],> 100 µM
same,TGI,[15],> 100 µM
same,TGI,[16],> 100 µM
same,TGI,[17],> 100 µM
same,TGI,[18],> 100 µM
same,TGI,[19],> 100 µM
same,TGI,[20],> 100 µM
same,TGI,[21],> 100 µM
same,TGI,[22],> 100 µM
same,TGI,[23],> 100 µM
same,TGI,[24],> 100 µM
same,TGI,[25],> 100 µM
same,TGI,[26],> 100 µM
same,TGI,[27],> 100 µM
same,TGI,[28],> 100 µM
same,TGI,[29],> 100 µM
same,TGI,[30],> 100 µM
same,TGI,[31],> 100 µM
same,TGI,[32],> 100 µM
same,TGI,[33],> 100 µM
same,TGI,[34],> 100 µM
same,TGI,[35],> 100 µM
same,TGI,[36],> 100 µM
same,TGI,[37],> 100 µM
same,TGI,[38],> 100 µM
same,TGI,[39],> 100 µM
same,TGI,[40],> 100 µM
same,TGI,[41],> 100 µM
same,TGI,[42],> 100 µM
same,TGI,[43],> 100 µM
same,TGI,[44],> 100 µM
same,TGI,[45],> 100 µM
same,TGI,[46],> 100 µM
same,TGI,[47],> 100 µM
same,TGI,[48],> 100 µM
same,TGI,[49],> 100 µM
same,TGI,[50],> 100 µM
same,TGI,[51],> 100 µM
same,TGI,[52],> 100 µM
same,TGI,[53],> 100 µM
same,TGI,[54],> 100 µM
same,TGI,[55],> 100 µM
same,TGI,[56],> 100 µM
CCC(C)C1=NC(C(=O)N/C=C\c2c[nH]c3cc(Br)c(Br)cc23)(C(C)C)NC1=O (stereo unspecified),GI50,[1],20.2 µM
same,TGI,[1],42.9 µM
same,GI50,[2],17.8 µM
same,TGI,[2],35 µM
same,GI50,[3],11.7 µM
same,TGI,[3],26.5 µM
same,GI50,[4],18.3 µM
same,TGI,[4],39.6 µM
same,GI50,[5],23.7 µM
same,TGI,[5],71.2 µM
same,GI50,[6],12.2 µM
same,TGI,[6],26.8 µM
same,GI50,[7],18.2 µM
same,TGI,[7],> 100 µM
same,GI50,[8],14 µM
same,TGI,[8],29.3 µM
same,GI50,[9],14.3 µM
same,TGI,[9],27.4 µM
same,GI50,[10],5.98 µM
same,TGI,[10],20 µM
same,GI50,[12],15.6 µM
same,TGI,[12],31.3 µM
same,GI50,[13],28.1 µM
same,TGI,[13],79.6 µM
same,GI50,[57],33.7 µM
same,TGI,[57],59.6 µM
same,GI50,[14],19.8 µM
same,TGI,[14],36.3 µM
same,GI50,[16],21.4 µM
same,TGI,[16],68.4 µM
same,GI50,[17],18.3 µM
same,TGI,[17],44.4 µM
same,GI50,[18],6.36 µM
same,TGI,[18],19.7 µM
same,GI50,[19],16.5 µM
same,TGI,[19],35.8 µM
same,GI50,[20],18.5 µM
same,TGI,[20],44.3 µM
same,GI50,[21],16.6 µM
same,TGI,[21],31.9 µM
same,GI50,[22],14 µM
same,TGI,[22],27.3 µM
same,GI50,[23],20.6 µM
same,TGI,[23],39.3 µM
same,GI50,[24],13.6 µM
same,TGI,[24],29.6 µM
same,GI50,[25],17.4 µM
same,TGI,[25],39.3 µM
same,GI50,[26],12 µM
same,TGI,[26],24.4 µM
same,GI50,[27],15.4 µM
same,TGI,[27],30 µM
same,GI50,[28],15.2 µM
same,TGI,[28],30.3 µM
same,GI50,[30],16 µM
same,TGI,[30],29.4 µM
same,GI50,[31],12.9 µM
same,TGI,[31],26.7 µM
same,GI50,[32],13.5 µM
same,TGI,[32],26.4 µM
same,GI50,[33],27.3 µM
same,TGI,[33],> 100 µM
same,GI50,[34],5.38 µM
same,TGI,[34],18.4 µM
same,GI50,[35],11.1 µM
same,TGI,[35],32.3 µM
same,GI50,[36],15.4 µM
same,TGI,[36],29 µM
same,GI50,[37],32.3 µM
same,TGI,[37],> 100 µM
same,GI50,[38],10.1 µM
same,TGI,[38],25.1 µM
same,GI50,[39],8.75 µM
same,TGI,[39],39 µM
same,GI50,[40],15.4 µM
same,TGI,[40],29.2 µM
same,GI50,[41],15 µM
same,TGI,[41],30.1 µM
same,GI50,[42],15.9 µM
same,TGI,[42],30.1 µM
same,GI50,[43],21 µM
same,TGI,[43],42.5 µM
same,GI50,[58],12.3 µM
same,TGI,[58],26.7 µM
same,GI50,[44],15 µM
same,TGI,[44],32.7 µM
same,GI50,[45],11.7 µM
same,TGI,[45],25.1 µM
same,GI50,[46],18.6 µM
same,TGI,[46],34.9 µM
same,GI50,[47],18.3 µM
same,TGI,[47],37.5 µM
same,GI50,[48],18.5 µM
same,TGI,[48],35 µM
same,GI50,[49],3.37 µM
same,TGI,[49],10.2 µM
same,GI50,[50],17 µM
same,TGI,[50],37.1 µM
same,GI50,[51],16.9 µM
same,TGI,[51],38.2 µM
same,GI50,[52],18.5 µM
same,TGI,[52],35.7 µM
same,GI50,[53],14.1 µM
same,TGI,[53],29 µM
same,GI50,[54],15.3 µM
same,TGI,[54],28.6 µM
same,GI50,[55],12 µM
same,TGI,[55],26.9 µM
same,GI50,[56],12.2 µM
same,TGI,[56],24.6 µM
